From patent publication US9695155B2, “Herbicidal substituted pyrimidinyloxy benzene compounds” (E. I. DU PONT DE NEMOURS AND COMPANY, priority 2013, dated 2017)

How the values were obtained:
field poppy = assay: Test D preemergence; format: in vivo, Papaver rhoeas
Method in brief: (§1)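 Values are 0–100 visual control ratings (0 none, 100 complete) given 7–21 days after application. Soil for preemergence was silt loam; postemergence plants stood 2–18 cm tall.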

deadnettle = assay: Test D preemergence; format: in vivo, Lamium amplexicaule
Method in brief: as §1

speedwell [1] = assay: Test D preemergence; format: in vivo, Veronica persica
Method in brief: as §1

spring barley = assay: Test D postemergence; format: in vivo, Hordeum vulgare
Method in brief: as §1

winter barley = assay: Test D postemergence; format: in vivo, Hordeum vulgare
Method in brief: as §1

pigweed = assay: Test D postemergence; format: in vivo, Amaranthus retroflexus
Excerpt: Seeds of plant species selected from bluegrass (annual bluegrass, Poa annua), blackgrass (Alopecurus myosuroides), canarygrass (littleseed canarygrass, Phalaris minor), chickweed (common chickweed, Stellaria media), galium (catchweed bedstraw, Galium aparine), bromegrass, downy (downy bromegrass, Bromus tectorum), field poppy (Papaver rhoeas), field violet (Viola arvensis), green foxtail (Setaria viridis), deadnettle (henbit deadnettle, Lamium amplexicaule), Italian ryegrass (Lolium multiflorum), kochia (Kochia scoparia), lambsquarters (Chenopodium album), oilseed rape (Brassica napus), pigweed (Amaranthus retroflexus), chamomile (scentless chamomile, Matricaria inodora), Russian thistle (Salsola kali), speedwell (bird's-eye speedwell, Veronica persica), spring barley (Hordeum vulgare), spring wheat (Triticum aestivum), wild buckwheat (Polygonum convolvulus), wild mustard (Sinapis arvensis), wild oat (Avena fatua), wild radish (Raphanus raphanistrum), windgrass (Apera spica-venti), winter barley (Hordeum vulgare), and winter wheat (Triticum aestivum) were planted into a silt loam soil and treated preemergence with test chemicals formulated in a non-phytotoxic solvent mixture which included a surfactant.
At the same time, these species were planted in pots containing Redi-Earth® planting medium (Scotts Company, 14111 Scottslawn Road, Marysville, Ohio 43041) comprising spaghnum peat moss, vermiculite, wetting agent and starter nutrients and treated with postemergence applications of the test chemicals formulated in the same manner. Plants ranged in height from 2 to 18 cm (1- to 4-leaf stage). Treated plants and controls were maintained in a controlled growth environment for 7 to 21 days after which time all species were compared to controls and visually evaluated. Plant response ratings, summarized in Table D, are based on a scale of 0 to 100 where 0 is no effect and 100 is complete control. A dash (-) response means no test result.

Italian ryegrass = assay: Test D preemergence; format: in vivo, Lolium multiflorum
Method in brief: as §1

windgrass = assay: Test D preemergence; format: in vivo, Apera spica-venti
Method in brief: as §1

speedwell [2] = assay: Test D postemergence; format: in vivo, Veronica persica
Method in brief: as §1

[3] = 16 g ai/ha, scale 0 (no effect) to 100 (complete control)
[4] = 31 g ai/ha, scale 0 (no effect) to 100 (complete control)
[5] = Postemergence, 62 g ai/ha, scale 0 to 100 (0 no effect, 100 complete control)
[6] = Postemergence, 31 g ai/ha, scale 0 to 100 (0 no effect, 100 complete control)
[7] = Postemergence, 125 g ai/ha, scale 0 to 100 (0 no effect, 100 complete control)
[8] = postemergence, 16 g ai/ha, scale 0 to 100, 0 no effect, 100 complete control
[9] = 31 g ai/ha, scale 0 to 100 (0 no effect, 100 complete control)
[10] = 62 g ai/ha, scale 0 to 100 (0 no effect, 100 complete control)
[11] = 125 g ai/ha, scale 0 to 100 (0 no effect, 100 complete control)

FCc1cccc(Oc2ncc(Cl)cn2)c1-n1cc(I)cn1 [Compound 245]
Plant response rating, Field Poppy (field poppy; [3]): 100
Plant response rating, Field Poppy (field poppy; 31 g ai/ha, scale 0-100): 100
Plant response rating, Field Poppy (field poppy; 62 g ai/ha, scale 0-100): 100
Plant response rating, Field Poppy (field poppy; 125 g ai/ha, scale 0-100): 100
Plant response rating, Deadnettle (deadnettle; [3]): 0
Plant response rating, Deadnettle (deadnettle; 31 g ai/ha, scale 0-100): 0
Plant response rating, Deadnettle (deadnettle; 62 g ai/ha, scale 0-100): 0
Plant response rating, Deadnettle (deadnettle; 125 g ai/ha, scale 0-100): 15
Plant response rating, Speedwell (speedwell [1]; [3]): 5
Plant response rating, Speedwell (speedwell [1]; [4]): 100
Plant response rating, Speedwell (speedwell [1]; 125 g ai/ha, scale 0-100): 100
Plant response rating, Barley, Spring (spring barley; [5]): 20
Plant response rating, Barley, Spring (spring barley; [6]): 20
Plant response rating, Barley, Spring (spring barley; [7]): 30
Plant response rating, Barley, Spring (spring barley; [8]): 10
Plant response rating, Barley, Winter (winter barley; [5]): 20
Plant response rating, Barley, Winter (winter barley; [6]): 15
Plant response rating, Barley, Winter (winter barley; [7]): 20
Plant response rating, Barley, Winter (winter barley; [8]): 25
Plant response rating, Pigweed (pigweed; 16 g ai/ha, scale 0-100): 95
Plant response rating, Pigweed (pigweed; [9]): 95
Plant response rating, Pigweed (pigweed; [10]): 100
Plant response rating, Pigweed (pigweed; [11]): 100
Plant response rating, Ryegrass, Italian (Italian ryegrass; [3]): 15
Plant response rating, Ryegrass, Italian (Italian ryegrass; [4]): 15
Plant response rating, Ryegrass, Italian (Italian ryegrass; 125 g ai/ha, scale 0-100): 40
Plant response rating, Windgrass (windgrass; [3]): 5
Plant response rating, Windgrass (windgrass; [4]): 15
Plant response rating, Windgrass (windgrass; 125 g ai/ha, scale 0-100): 60
Plant response rating, Speedwell (speedwell [2]; 16 g ai/ha, scale 0-100): 100
Plant response rating, Speedwell (speedwell [2]; [9]): 100
Plant response rating, Speedwell (speedwell [2]; [10]): 100
Plant response rating, Speedwell (speedwell [2]; [11]): 100
